Measured values published in patent US20250289793A1, “MACROCYCLIC INHIBITORS OF ATP CITRATE LYASE” (Esperion Therapeutics, Inc., priority 2022, published 2025).

Key:
ACLY [1] = molecular target: T1, ACLY (Homo sapiens (Human), UniProt P53396); test: InCell Pulse assay (permeate HEK293 cells, bind to and stabilize ACLY); format: cell-based; settings: HEK293 cells transfected with pICP-ACLY(FL)-ePL; 1 hour at 37° C., 55° C. heat pulse 10 minutes; read-out: InCell Pulse IC50 GMean
Experimental: HEK293 cells transfected for 24 hours with pICP-ACLY(FL)-ePL (3 μg DNA per T25 flask) using FuGene HD (Promega Corp.) were harvested and cryopreserved. On the day of the assay, the frozen transfected cells were thawed at 37° C., and the storage medium (DMEM with 2 mM L-Glutamine, 10% FBS and a final concentration of DMSO 10%) was exchanged with assay medium (OptiMEM; Gibco™, ThermoFischer Scientific). Compounds were 3-fold serially diluted in DMSO over 11-point concentration range. 100 nL of the corresponding dilutions were spotted into the assay plate (Greiner AG; 384 Well, PP, Small Volume, Deep Well, Natural, cat. no. 784201) followed by the addition of 20 μL of cell suspension adjusted with assay medium to 7.5E4 cells/mL. Subsequently, the plates were sealed and incubated for 1 hour at 37° C. Afterwards, the plates were fixed upside down in a rack and incubated in a 55° C. water bath for 10 minutes. Following this heat pulse step, plates were allowed to reach room temperature for 10 minutes and centrifuged for a few seconds at 1000 rpm and room temperature. 25 μL EA detection solution (working solution: 0.0167× InCell EA Reagent, 0.15× InCell Dilution Buffer, 0.167× InCell Lysis Buffer; 0.667× InCell Substrate Reagent; InCell Hunter Detection kit; Eurofins DiscoverX; cat. no. 96-0079) were added to each well. Afterwards, 42 μL were transferred from the assay plate to the detection plate (Corning Inc., 384-well Low Flange Black Flat Bottom Polystyrene NBS Microplate, cat. no. 3575), followed by an incubation for 1 hour at room temperature, a centrifugation step for 1 minute at 1000 rpm and the detection of the luminescence signal using an EnVision microplate reader (Perkin Elmer Inc.). Concentration-response curve-fitting and IC50 determination was performed using Evotec's in-house evaluation software APlus with a four-parameter non-linear regression fit model. Data was normalized to 0.5% (final concentration) DMSO as low/negative control and 1 μM (final concentration) NDI-094311 as high/positive control.

ACLY [2] = molecular target: T1, ACLY; test: Human ACLY (hACLY) RF/MS activity assay; format: biochemical; settings: 1 nM hACLY; 30 min pre-incubation; 15 μM Coenzyme A, 50 μM ATP, 50 μM citrate; CoA to Acetyl-CoA by RF/MS; read-out: RFMS IC50 GMean
Experimental: Compounds of the disclosure were evaluated for their efficacy in inhibiting hACLY using rapid fire mass spectrometry (RF/MS).
The final reaction volume for each compound was 20 μl and consisted of buffer (50 mM Hepes pH 8.0, 10 mM MgCl2, 0.003% BSA, 0.01% Brij35, 50 mM NaCl, 4 mM DTT) and 1 nM hACLY, EV12992, PP6692) using Greiner, 384 well small volume, deep well plates (Cat #784201). A two-fold dilution series with a top concentration of 10 μM was used to record a concentration response curve. Both the substrate (CoA) and product (Acetyl-CoA) were quantified, and given a ratio. […] The final DMSO-concentration was 1% (v/v). Compounds were pre-incubated for 30 min with the buffered enzyme solution at RT (20° C.), and substrate solution was added (final concentrations: 15 μM Coenzyme A, 50 μM ATP and 50 μM citrate) to initiate the enzyme reaction. The enzyme reaction was incubated for additional 30 min at RT. The reaction was quenched upon addition of 40 μl of 5% Formic acid in H2O and centrifuged (4350 rpm at 20° C. for 10 min).
Product formation was quantified using a RF/MS-based method based on mass change of CoA (substrate) to Acetyl-CoA (product).

T1 sequence (P53396 whole entry): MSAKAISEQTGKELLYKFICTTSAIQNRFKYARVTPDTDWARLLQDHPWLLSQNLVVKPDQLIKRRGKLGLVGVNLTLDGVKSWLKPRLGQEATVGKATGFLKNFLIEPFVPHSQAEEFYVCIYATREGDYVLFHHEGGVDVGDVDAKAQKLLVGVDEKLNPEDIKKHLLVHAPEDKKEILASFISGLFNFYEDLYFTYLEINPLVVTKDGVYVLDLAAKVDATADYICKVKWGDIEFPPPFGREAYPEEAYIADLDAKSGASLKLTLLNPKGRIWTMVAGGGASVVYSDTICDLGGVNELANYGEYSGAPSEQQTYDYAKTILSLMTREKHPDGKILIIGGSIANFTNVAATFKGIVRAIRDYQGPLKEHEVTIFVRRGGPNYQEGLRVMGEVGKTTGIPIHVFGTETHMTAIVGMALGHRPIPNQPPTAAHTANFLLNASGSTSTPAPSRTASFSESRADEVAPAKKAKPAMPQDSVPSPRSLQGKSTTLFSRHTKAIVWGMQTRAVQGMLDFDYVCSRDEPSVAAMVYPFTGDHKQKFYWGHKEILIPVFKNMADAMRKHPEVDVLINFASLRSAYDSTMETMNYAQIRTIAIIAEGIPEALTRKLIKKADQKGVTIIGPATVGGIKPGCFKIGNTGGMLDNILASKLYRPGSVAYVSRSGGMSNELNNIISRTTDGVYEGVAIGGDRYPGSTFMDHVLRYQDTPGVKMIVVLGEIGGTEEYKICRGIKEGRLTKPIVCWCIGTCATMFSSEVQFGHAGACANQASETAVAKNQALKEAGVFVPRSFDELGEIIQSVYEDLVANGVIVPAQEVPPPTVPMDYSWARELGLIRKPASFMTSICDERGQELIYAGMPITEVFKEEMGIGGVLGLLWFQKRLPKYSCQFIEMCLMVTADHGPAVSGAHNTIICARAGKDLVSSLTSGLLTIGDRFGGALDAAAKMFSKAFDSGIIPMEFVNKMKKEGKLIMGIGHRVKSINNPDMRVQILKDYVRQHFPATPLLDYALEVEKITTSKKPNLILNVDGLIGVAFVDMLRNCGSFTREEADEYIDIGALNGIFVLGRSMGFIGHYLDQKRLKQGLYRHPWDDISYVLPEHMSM

Structure (SMILES)	IC50 (ACLY [1]) [nM]	IC50 (ACLY [2]) [nM]
O=C1OCCOc2ccc(F)cc2-c2cc(F)c(F)c(c2)NS(=O)(=O)c2cc1cc(Cl)c2O [Compound 79, 15-chloro-4,21,22-trifluoro-16-hydroxy-18,18-dioxo-8,11-dioxa-18λ6-thia-19-azatetracyclo[18.3.1.113,17.02,7]pentacosa-1(23),2(7),3,5,13,15,17(25),20(24),21-nonaen-12-one]	< 300	< 20
O=C1OCCOc2ccccc2-c2cc(c(F)cc2F)NS(=O)(=O)c2cc1cc(Cl)n2 [Compound 61, 15-chloro-21,23-difluoro-18,18-dioxo-8,11-dioxa-18λ6-thia-16,19-diazatetracyclo[18.3.1.113,17.02,7]pentacosa-1(24),2,4,6,13,15,17(25),20,22-nonaen-12-one]	≥ 50000	≥ 10000
O=C1OCCOc2ccc(C3CC3)cc2-c2cc(c(F)cc2F)NS(=O)(=O)c2cc1cc(Cl)c2O [Compound 31, 15-chloro-4-cyclopropyl-21,23-difluoro-16-hydroxy-8,11-dioxa-18lambda6-thia-19-azatetracyclo[18.3.1.1^13,17.0^2,7]pentacosa-1(23),2,4,6,13(25),14,16,20(24),21-nonaene-12,18,18-trione]	1000 to 50000	100 to 10000
O=S1(=O)Nc2cc(ccc2F)-c2ccccc2CCCOCc2cc(Cl)c(O)c1c2 [Compound 92, 15-chloro-21-fluoro-18,18-dioxo-11-oxa-18λ6-thia-19-azatetracyclo[18.3.1.113,17.02,7]pentacosa-1(24),2,4,6,13,15,17(25),20,22-nonaen-16-ol]	1000 to 50000	100 to 10000
O=S1(=O)Nc2cc(ccc2F)-c2ccccc2CCOCc2cc(Cl)c(O)c1c2 [Compound 69, 14-chloro-20-fluoro-17,17-dioxo-10-oxa-17λ6-thia-18-azatetracyclo[17.3.1.112,16.02,7]tetracosa-1(23),2,4,6,12,14,16(24),19,21-nonaen-15-ol]	< 300	100 to 10000
O=C1OCCc2ccccc2-c2cc(c(F)cc2F)NS(=O)(=O)c2cc1cc(Cl)c2O [Compound 21, 14-chloro-20,22-difluoro-15-hydroxy-10-oxa-17lambda6-thia-18-azatetracyclo[17.3.1.1^12,16.0^2,7]tetracosa-1(23),2,4,6,12,14,16(24),19,21-nonaene-11,17,17-trione]	< 300	< 20
O=C1OCc2ncccc2-c2cc(c(F)cc2F)NS(=O)(=O)c2cc1cc(Cl)c2O [Compound 88, 13-chloro-19,21-difluoro-14-hydroxy-16,16-dioxo-9-oxa-16λ6-thia-6,17-diazatetracyclo[16.3.1.111,15.02,7]tricosa-1(21),2(7),3,5,11,13,15(23),18(22),19-nonaen-10-one]	≥ 50000	100 to 10000
CN1CCc2ccccc2-c2cc(c(F)cc2F)NS(=O)(=O)c2cc(cc(Cl)c2O)C1=O [Compound 71, 14-chloro-20,22-difluoro-15-hydroxy-10-methyl-17,17-dioxo-17λ6-thia-10,18-diazatetracyclo[17.3.1.112,16.02,7]tetracosa-1(22),2(7),3,5,12,14,16(24),19(23),20-nonaen-11-one]	≥ 50000	< 20
O=C1OCCOc2ccc(F)cc2-c2ccc(F)c(c2)NS(=O)(=O)c2cc1cc(Cl)c2O [Compound 46, 15-chloro-4,21-difluoro-16-hydroxy-18,18-dioxo-8,11-dioxa-18λ6-thia-19-azatetracyclo[18.3.1.113,17.02,7]pentacosa-1(23),2(7),3,5,13,15,17(25),20(24),21-nonaen-12-one]	< 300	< 20
O=C1OCc2ccccc2-c2cc(F)c(F)c(c2)NS(=O)(=O)c2cc1cc(Cl)c2O [Compound 82, 13-chloro-19,20-difluoro-14-hydroxy-16,16-dioxo-9-oxa-16λ6-thia-17-azatetracyclo[16.3.1.111,15.02,7]tricosa-1(21),2,4,6,11(23),12,14,18(22),19-nonaen-10-one]	< 300	< 20
O=C1OCCCOc2cc(F)ccc2-c2cc(c(F)cc2F)NS(=O)(=O)c2cc1cc(Cl)c2O [Compound 29, 16-chloro-5,22,24-trifluoro-17-hydroxy-8,12-dioxa-19lambda6-thia-20-azatetracyclo[19.3.1^1,4,18.0^2,7]hexacosa-1(25),2,4,6,14,16,18(26),21,23-nonaene-13,19,19-trione]	300 to 1000	20 to 100
O=C1OCc2cccnc2-c2cc(c(F)cc2F)NS(=O)(=O)c2cc1cc(Cl)c2O [Compound 87, 13-chloro-19,21-difluoro-14-hydroxy-16,16-dioxo-9-oxa-16λ6-thia-3,17-diazatetracyclo[16.3.1.111,15.02,7]tricosa-1(21),2(7),3,5,11,13,15(23),18(22),19-nonaen-10-one]	≥ 50000	20 to 100
COc1c(Cl)cc2cc1S(=O)(=O)Nc1cc(ccc1O)-c1ccccc1OCCOC2=O [Compound 25, 15-chloro-21-hydroxy-16-methoxy-8,11-dioxa-18lambda6-thia-19-azatetracyclo[18.3.1.1^13,17.0^2,7]pentacosa-1(24),2,4,6,13,15,17(25),20,22-nonaene-12,18,18-trione]		≥ 10000
Cc1cccc2c1-c1cc(c(F)cc1F)NS(=O)(=O)c1cc(cc(Cl)c1O)C(=O)OCCO2 [Compound 49, 15-chloro-21,23-difluoro-16-hydroxy-3-methyl-18,18-dioxo-8,11-dioxa-18λ6-thia-19-azatetracyclo[18.3.1.113,17.02,7]pentacosa-1(23),2(7),3,5,13(25),14,16,20(24),21-nonaen-12-one]	≥ 50000	≥ 10000
O=C1OCCOc2ccc(Br)cc2-c2cc(c(F)cc2F)NS(=O)(=O)c2cc1cc(Cl)c2O [Compound 24, 4-bromo-15-chloro-21,23-difluoro-16-hydroxy-8,11-dioxa-18lambda6-thia-19-azatetracyclo[18.3.1.1^13,17.0^2,7]pentacosa-1(24),2,4,6,13,15,17(25),20,22-nonaene-12,18,18-trione]	< 300	20 to 100
O=C1OCCOc2ncccc2-c2cc(c(F)cc2F)NS(=O)(=O)c2cc1cc(Cl)c2O [Compound 32, 15-chloro-21,23-difluoro-16-hydroxy-8,11-dioxa-18lambda6-thia-6,19-diazatetracyclo[18.3.1.1^13,17.0^2,7]pentacosa-1(24),2,4,6,13,15,17(25),20,22-nonaene-12,18,18-trione]	< 300	< 20
O=C1NCCOc2ccccc2-c2cc3c(cc2F)CCN3C(=O)c2cc1ccc2O [Compound 11, 24-fluoro-16-hydroxy-8-oxa-11,19-diazapentacyclo[17.5.2.1^13,17.0^2,7.0^22,26]heptacosa-1(24),2,4,6,13,15,17(27),22,25-nonaene-12,18-dione]		≥ 10000
O=C1OCCOc2ccccc2-c2ccc(F)c(c2)NS(=O)(=O)c2cc1ncc2O [Compound 66, 21-fluoro-16-hydroxy-18,18-dioxo-8,11-dioxa-18λ6-thia-14,19-diazatetracyclo[18.3.1.113,17.02,7]pentacosa-1(24),2,4,6,13,15,17(25),20,22-nonaen-12-one]		20 to 100
O=C1OCC2Cc3cccc(c3O2)-c2cc(c(F)cc2F)NS(=O)(=O)c2cc1cc(Cl)c2O (single isomer, unassigned) [Compound 41, 15-chloro-21,23-difluoro-16-hydroxy-18,18-dioxo-8,11-dioxa-18λ6-thia-19-azapentacyclo[18.3.1.16,9.113,17.02,7]hexacosa-1(23),2(7),3,5,13,15,17(25),20(24),21-nonaen-12-one]	< 300	
